The source of these data is article PMC9569163 (Journal of molecular biology, 2020).

The conditions of data set [1]: cited from earlier work.
The subject of data set [2] is TfR. As to conditions: cited from earlier work.
Data set [3] addresses human TfR (Homo sapiens, UniProt P02786). To be noted: SPR, 40 nM analyte, HBS-P+ pH 7.4, 56 RUs captured human TfR.
The conditions of data set [4]: cited from earlier work. This is another data set of the same source.

human TfR, sequence (P02786 121-760): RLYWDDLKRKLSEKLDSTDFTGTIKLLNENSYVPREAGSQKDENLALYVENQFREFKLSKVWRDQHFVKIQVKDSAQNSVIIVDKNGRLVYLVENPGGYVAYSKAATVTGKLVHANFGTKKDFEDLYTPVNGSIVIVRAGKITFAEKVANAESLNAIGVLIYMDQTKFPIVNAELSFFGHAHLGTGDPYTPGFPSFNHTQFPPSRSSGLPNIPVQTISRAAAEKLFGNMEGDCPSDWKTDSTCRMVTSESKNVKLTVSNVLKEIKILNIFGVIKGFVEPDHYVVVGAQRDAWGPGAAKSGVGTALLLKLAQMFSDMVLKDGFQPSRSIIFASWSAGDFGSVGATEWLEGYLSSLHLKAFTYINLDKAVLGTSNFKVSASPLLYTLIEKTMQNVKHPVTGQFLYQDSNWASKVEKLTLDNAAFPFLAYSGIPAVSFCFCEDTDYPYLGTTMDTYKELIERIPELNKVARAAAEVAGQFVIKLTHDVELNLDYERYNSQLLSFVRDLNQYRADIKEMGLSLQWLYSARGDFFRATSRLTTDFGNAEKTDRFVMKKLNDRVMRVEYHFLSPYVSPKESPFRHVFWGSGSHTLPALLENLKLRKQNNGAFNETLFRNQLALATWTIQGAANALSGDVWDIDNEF

In the case of transferrin, the plasma half-life in data set [1] was 40 h. Moreover, the “endocytosis rate t½” value in data set [2] is 3.5 min.
As for holo-transferrin, in data set [3], the “interaction with captured TfR” value was “demonstrated an interaction”.
As to Angiopep-2, the serum degradation half-life in data set [4] is ~ 20 minutes.
